For one data set, the target named is T1, sigma-2 receptors (Homo sapiens, UniProt Q5BJF2).
T1 construct: endogenous in cells; host or cells: MiaPaCa2, PANC-1, AsPC1 (whole cells)
Description: Flow cytometry displacement of sigma-2 fluorescent ligand NO1 in human pancreatic cancer cells. The format is binding. The method, then:
Flow cytometry studies to detect receptor densities and ligand binding affinities were carried out according to Abate et al. and Niso et al., for the sigma-1 and sigma-2 receptors, respectively. […] At the end of the incubation periods, the cells were washed twice with PBS, detached with […] Cell Dissociation Solution (Sigma Chemical Co.) for 10 min at 37 °C, centrifuged at 13,000 g for 5 min and resuspended in 500 µl PBS. Fluorescence was recorded using a Bio-Guava® easyCyte™ 5 Flow Cytometry System (Millipore, Billerica, MA, USA) equipped with a 530 nm band pass filter. For each analysis, 50,000 events were collected and analyzed using InCyte software (Millipore).
(A flow cytometer gives signals particle by particle.)

A further data set concerns the target T2, sigma-1 receptors (Homo sapiens, UniProt Q99720).
T2 construct: endogenous in cells; host or cells: PANC-1, MiaPaCa2 (whole cells)
Description: Flow cytometry displacement of sigma-1 fluorescent ligand LM1 in human pancreatic cancer cells. Format: binding. The method, then: (10 µM) was co-incubated. At the end of the incubation periods, the cells were washed twice with PBS, detached with […] Cell Dissociation Solution (Sigma Chemical Co.) for 10 min at 37 °C, centrifuged at 13,000 g for 5 min and resuspended in 500 µl PBS. Fluorescence was recorded using a Bio-Guava® easyCyte™ 5 Flow Cytometry System (Millipore, Billerica, MA, USA), equipped with a 530 nm band pass filter. For each analysis, 50,000 events were collected and analyzed using InCyte software (Millipore).

The subject of the next data set is AspC1 cells. Description: Cell viability MTT assay 48 h. The note with it: Homo sapiens, MTT 48 h, read-out: Activity EC50 ± SEM, AspC1. Format: cell-based. The method, then:
(§1) Cell viability was assessed using a MTT assay at 48 h. On day 1, 25,000 cells/well were seeded into 96-well plates in 100 µl culture medium. On day 2, drugs at concentrations ranging from 1 µM to 100 µM were added. In all experiments the drug-solvents (EtOH, DMSO) were added as controls to evaluate possible solvent cyto-toxicities. After the established incubation time with drugs (48 h), MTT (0.5 mg/ml) was added to each well, and after 3–4 h incubation at 37 °C, the supernatants were removed. The formazan crystals formed were solubilized using 100 µl DMSO/EtOH (1:1) after which the absorbance values at 570 and 630 nm were determined using a microplate reader Victor 3 from PerkinElmer Life Sciences.

The subject of the next data set is BxPC3 cells. Put plainly: Cell viability MTT assay 48 h. The format is cell-based. As to conditions: Homo sapiens, BXPC-3; MTT 48 h; read-out: Activity EC50 ± SEM, BxPC3. The method, then: as §1
In general terms: Tetrazolium assays rely on reduction of a dye to a coloured formazan, in cell work by metabolically active cells.

For a further data set, the system named is HPDE cells. Put plainly: Cell viability MTT assay 48 h. As to conditions: Homo sapiens, MTT 48 h, read-out: Activity EC50 ± SEM, HPDE (normal cells). The format is cell-based. The method, then:
as §1

The test system of another data set is KP02 cells. Put plainly: Cell viability MTT assay 48 h. As to conditions: Mus musculus; MTT 48 h; read-out: Activity EC50 ± SEM, KP02. The format is cell-based. The method, then:
as §1

Another data set concerns MiaPaCa2 cells. Description: Cell viability MTT assay 48 h. As to conditions: Homo sapiens, MIA PaCa-2; MTT 48 h; read-out: Activity EC50 ± SEM, MiaPaCa2. Format: cell-based. The method, then:
as §1

The subject of another data set is PANC-1 cells. Description: Cell viability MTT assay 48 h. The format is cell-based. The note with it: Homo sapiens. The method, then: as §1
The next data set relates to caspase 7. Put plainly: Caspase 7 activity assay in pancreatic cancer cells. The note with it: 50 µM, 2 h. The format is cell-based, human and murine. The method, then:
(§2) Caspase 3, caspase 7 and caspase 9 activation was measured using a Caspase 3/7 Fluorescence Assay kit (Cayman Chemical, Ann Arbor, MI, USA) and a Caspase 9 fluorometric assay kit (Enzo Life Science, Roma, Italy). The results are expressed as nmol of the hydrolyzed substrate of each caspase/mg cellular proteins, according to a previously set titration curve.

The test system of the next data set is caspase 9. Put plainly: Caspase 9 activity assay in pancreatic cancer cells. The format is cell-based, human and murine. The note with it: 2 h. The method, then:
as §2

The test system of a further data set is PANC-1 xenografts. Description: In vivo xenograft assay, PANC-1. As to conditions: for tumor growth / intratumor apoptosis (cleaved caspase 3) and lipid peroxidation: 30 days. Set-up: species or system mice.
The conditions of data set [1]: mouse, in vivo.
Description: 2 × 10^5 PANC-1 or Mia-PaCa2 cells were inoculated subcutaneously in the right flank of 6-week old C57BL/6 female nude mice (Charles River Laboratories Italia, Calco), housed (5 per cage) under a 12 h light/dark cycle, with food and drinking water provided ad libitum. Tumor growth was measured daily by caliper, according to the equation (LxW^2)/2, where L = tumor length and W = tumor width. […] Tumor volumes and animal weights were monitored daily. Animals were euthanized at day 18 or 36 after randomization with zolazepam (0.2 ml/kg) and xylazine (16 mg/kg). […] Red blood cell (RBC) count, hemoglobin (Hb), white blood cell (WBC) count, platelet (PLT) count, lactate dehydrogenase (LDH), aspartate aminotransferase (AST), alanine aminotransferase (ALT), alkaline phosphatase (AP), creatinine and creatine phosphokinase (CPK) were measured in blood samples collected immediately after euthanasia, using commercially available kits from Beckman Coulter Inc (Beckman Coulter, Miami, FL, USA).
Blood was collected immediately after euthanasia and analyzed for red blood cells (RBC) count, hemoglobin (Hb), white blood cells (WBC) count, platelets (PLT) count, lactate dehydrogenase (LDH), aspartate aminotransferase (AST), alanine aminotransferase (ALT), alkaline phosphatase (AP), creatinine, creatine phosphokinase (CPK). Data are presented as means ± SD.

Values joined by “and” are separate entries in the source; they are usually repeats but may differ in a detail not shown here. Equal values may be shown once.

T1 sequence (Q5BJF2 whole entry): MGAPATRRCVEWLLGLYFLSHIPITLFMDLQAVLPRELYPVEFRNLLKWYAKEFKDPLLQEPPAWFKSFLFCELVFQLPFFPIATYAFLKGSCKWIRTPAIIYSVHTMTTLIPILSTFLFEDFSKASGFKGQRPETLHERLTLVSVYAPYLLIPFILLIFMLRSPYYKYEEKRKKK
T2 sequence (Q99720 whole entry): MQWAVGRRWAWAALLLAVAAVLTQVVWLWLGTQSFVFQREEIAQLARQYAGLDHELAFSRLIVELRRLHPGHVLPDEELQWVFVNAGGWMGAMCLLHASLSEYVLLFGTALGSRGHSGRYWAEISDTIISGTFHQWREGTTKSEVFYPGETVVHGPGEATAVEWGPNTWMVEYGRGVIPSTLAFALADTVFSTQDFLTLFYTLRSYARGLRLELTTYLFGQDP
Description for PANC-1 xenografts: 2 × 10^5 PANC-1 or Mia-PaCa2 cells were inoculated subcutaneously in the right flank of 6-week old C57BL/6 female nude mice (Charles River Laboratories Italia, Calco), housed (5 per cage) under a 12 h light/dark cycle, with food and drinking water provided ad libitum. Tumor growth was measured daily by caliper, according to the equation (LxW^2)/2, where L = tumor length and W = tumor width. When tumors reached a volume of 100 mm^3, the mice (n = 8/group) were randomized in the following groups and treated daily for 15 days or 30 days intraperitoneally as reported: (1) Vehicle group (100 µl saline solution), (2) FA4^low group (750 nmol FA4 in 100 µl saline solution), (3) FA4^high group (1500 nmol FA4 in 100 µl saline solution) and (4) Gemcitabine group (20 mg/kg gemcitabine, twice a week). Tumor volumes and animal weights were monitored daily. Animals were euthanized at day 18 or 36 after randomization with zolazepam (0.2 ml/kg) and xylazine (16 mg/kg). Next, tumors were excised and paraffin-embedded. Sections were immuno-stained for cleaved caspase 3 (Cell Signalling Technology, Danvers, MA, USA) or with an anti-malondialdehyde antibody (Abcam), followed by a peroxidase-conjugated secondary antibody (Dako, Glostrup, Denmark). The sections were examined under a Leica DC100 microscope (Leica, Wetzlar, Germany). Quantification of the immunohistochemical analyses was performed using ImageJ software (https://imagej.nih.gov/). The staining intensities were expressed as arbitrary units and considered 1 in the vehicle group.

What is called IC50 is the point on the concentration scale where inhibition reaches its midpoint. In general, EC50 refers to the concentration at which the effect is half-maximal. Take `CN(C)C(=S)N/N=C1\C(=O)N(CCCCN2CCC3(CC2)OCc2ccccc23)c2ccccc21` [FA4, (Z)-2-(1-(4-(3 H-spiro[isobenzofuran-1,4’-piperidine]-1’-yl)butyl)-2-oxoindolin-3-ylidene)-N,N-dimethylhydrazinecarbothioamide]: the IC50 at sigma-2 receptors (Flow Cytometry, IC50 ± SEM, Sigma-2, AspC1, AspC1 cells, displacement of NO1) was 0.0106 ± 0.0022 µM; at sigma-2 receptors (Flow Cytometry, IC50 ± SEM, Sigma-2, MiaPaCa2, MiaPaCa2 cells, displacement of NO1) it was 0.00913 ± 0.0011 µM; at sigma-2 receptors (Flow Cytometry, IC50 ± SEM, Sigma-2, PANC-1, PANC-1 cells, displacement of NO1) it was 0.0114 ± 0.0023 µM; on sigma-2 receptors (IC50 at sigma-2 receptors by flow cytometry, across MiaPaCa2, PANC-1, Aspc1 and (murine) KP02 cells) it was 0.00913 to 0.0116 µM and ~0.01 µM; at sigma-1 receptors (Flow Cytometry, IC50 ± SEM, Sigma-1, MiaPaCa2, MiaPaCa2 cells, displacement of LM1), 0.0532 ± 0.0056 µM; on sigma-1 receptors (Flow Cytometry, IC50 ± SEM, Sigma-1, PANC-1, PANC-1 cells, displacement of LM1), 0.0513 ± 0.0043 µM. Further, the IC50 at sigma-1 receptors (IC50 at sigma-1 receptor by flow cytometry (discussion), PANC-1 and MiaPaCa2 cells) was approximately 0.05 µM; with PANC-1 cells (read-out: IC50 in PANC1 cells (discussion)) it was 3.01 µM. The “lower affinity for the sigma-1 receptor compared to the sigma-2 receptor” value at sigma-1 receptors (flow cytometry IC50 values) came to 5 fold. In addition, the EC50 with AspC1 cells is 1.39 ± 0.3 µM; with BxPC3 cells, 1.36 ± 0.2 µM; in the data set with HPDE cells it was 6.11 ± 1.1 µM; with KP02 cells, 0.88 ± 0.1 µM; in the data set with MiaPaCa2 cells it was 1.98 ± 0.4 µM; in the data set with PANC-1 cells (MTT 48 h, read-out: Activity EC50 ± SEM, PANC-1), 3.01 ± 0.8 µM. In addition, in the data set with caspase 7, the “caspase 7 activation” value is listed as “activated by FA4 in all cell lines except MiaPaCa2”. Also, in the data set on caspase 9 (50 µM FA4 plus 0.4 µM mitoquinol), the “activation of caspase 9 and caspase 3 with mitoquinol” value is “did not find any activation of caspase 9 and caspase 3”. In addition, the “caspase 9 activation” value in the data set with caspase 9 (50 µM) was “observed in all the cells in which FA4 increased mitochondrial ROS and depolarization”. For the same compound, the “tumor volume vs vehicle” value in the data set with PANC-1 xenografts (FA4 750 nmol (low) and 1500 nmol (high) i.p. daily, 15 days) is “tumors were significantly smaller”. Besides, the tumor growth result in the data set on PANC-1 xenografts (FA4 high dosage 1500 nmol i.p. daily) is on record as “regression of tumor growth”; in the data set with PANC-1 xenografts (FA4 low dosage 750 nmol i.p. daily), “cytostatic effect”. Besides, the results for the “intratumor apoptosis (cleaved caspase 3) and lipid peroxidation” value in the data set on PANC-1 xenografts (FA4 high dosage) and with PANC-1 xenografts (FA4 low dosage) were “became more pronounced” and “low or undetectable”, respectively. Besides, the “blood cell counts and hemato-chemical parameters vs control” value in data set [1] is “no significant differences”.

The values are drawn from PMC8648660, “Multifunctional thiosemicarbazones targeting sigma receptors: in vitro and in vivo antitumor activities in pancreatic cancer models” (Cellular Oncology, 2021).
